# Columns and labels:
# [1] = tested on: genotype A, "Long" strain RSV; assay: RSV-A assay (CPE, ATPlite readout in Hep-2 cells); assay type: cell-based; conditions: human respiratory syncytial virus, HEp-2, Hep-2 cells, genotype A "Long" strain RSV, MOI 0.1; read-out: Human RSV-A (“Long” strain) EC50
# Procedure, shortened: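 Protection from RSV-induced cytopathic effect, measured as ATPlite luminescence after 5 days, gave EC50 values. Assay used genotype A Long strain at MOI 0.1 on Hep-2 cells seeded at 8,000/well in DMEM growth media with 10% FBS; compounds tested as 2-fold dilutions in duplicate.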
# [2] = tested on: recombinant HMPV CAN97-83 (MPV-GFP1); assay: HMPV antiviral assay (MPV-GFP1 eGFP fluorescence in Vero E6 cells); assay type: cell-based; conditions: human metapneumovirus, Vero C1008, 120 h, read-out: HMPV EC50
# Protocol: HMPV antiviral activity was evaluated using a recombinant version of HMPV CAN97-83 engineered to contain the coding sequence for enhanced green fluorescence protein (eGFP) in the 3′ end of the virus genome (MPV-GFP1, ViraTree). Vero E6 cells ([…]) were seeded at a density of 12,000 cells/100 μL/well into 96-well cell plates one day prior to the assay. On the day of screening, the cell culture medium was aspirated from the wells and cells were washed twice with serum-free Eagle's Modified Essential Medium (EMEM, ATCC #) containing 1% penicillin-streptomycin (Invitrogen) (SF-EMEM). Cell washes were performed by dispensing 100 μL SF-EMEM per well and immediately aspirating the wash medium from the well. Following the second wash step, serum-free OptiMEM (Invitrogen, Cat No.) (SF-OptiMEM) containing 0.5 μg/mL TPCK-Trypsin (VENDOR) and 1% penicillin-streptomycin was added to the cells at 50 μL/well. Compounds were added into the 96-well plates using a JANUS automated liquid handling system (VENDOR). Compounds were initially diluted 1:50 into an intermediate 96-well plate containing SF-OptiMEM prior to transfer to the assay plate (25 μL/well). Each of the test compounds were tested in duplicate wells at final concentrations starting from 8 μM or 2 μM using ½ stepwise dilutions for a total of 8 points. Virus infection was performed by preparing a working stock of MPV-GFP1 at a multiplicity of infection (MOI) equal to 0.05/25 μL and aliquoting 25 μL of virus inoculum to the compound and positive control wells. SF-OptiMEM was added (25 μL/well) to the appropriate wells to serve as a virus-free negative control for the assay. The final DMSO concentration of all wells is 0.5%. Plates were incubated at 32° C., 5% CO2 for 5 days.
# After 5 days incubation, eGFP fluorescence intensity was measured at […] using a Spectramax i3X plate reader (VENDOR). Percent viral inhibition was calculated using the following equation: y=[[…]−(XQ/XP)]×100 Where XQ is the fluorescence intensity measured in a well containing recombinant MPV-GFP1-infected, compound-treated cells and XP is the average fluorescence intensity measured in the wells containing untreated cells infected with recombinant virus. EC50 values were then calculated by non-linear regression using a four parameter curve logistic equation. The curve fit model employed was XLFit Dose Response One Site Model 200: y=(A+(B/(1+((x/C)^D)))) Where A is the minimum y value, B is the maximum y value, C is the log EC50 value, and D is the slope factor. […] EC50 ranges are as follows: A<0.5 μM; B>0.5 μM.
Structure (SMILES),EC50 [1],EC50 [2]
COc1cc(C(=O)NC[C@](O)(c2cc3c(c(-c4ccc(F)cc4)n2)OC[C@]3(C)C(N)=O)C(F)(F)F)ccc1OC[C@@H](C)O [Example 290],< 200 nM,< 500 nM
C[C@]1(C(N)=O)COc2c1cc([C@@](O)(CNC(=O)c1ccc(OC3CC3)c(-c3cccc(C(F)(F)F)n3)c1)C(F)(F)F)nc2-c1ccc(F)cc1 [Example 110],< 200 nM,> 500 nM
Cc1nc2ccc(C(=O)NC[C@](O)(c3cc4c(c(-c5ccc(F)cc5)n3)OC[C@]4(C)C(N)=O)C(F)(F)F)cc2o1 [Example 424],< 200 nM,< 500 nM
C[C@]1(C(N)=O)COc2c1cc([C@@](O)(CNC(=O)c1cc(OC3CC3)c3nc(N)sc3c1)C(F)(F)F)nc2-c1ccc(F)cc1 [Example 543],< 200 nM,< 500 nM
C[C@]1(C(N)=O)COc2c1cc([C@@](O)(CNC(=O)c1ccc3ncc(Cl)cc3c1)C(F)(F)F)nc2-c1ccc(F)cc1 [Example 526],< 200 nM,< 500 nM
C[C@]1(C(N)=O)COc2c1cc([C@@](O)(CNC(=O)c1ccc(OC3CC3)c(OC3CC3)c1)C(F)(F)F)nc2-c1ccc(F)c(Cl)c1 [Example 90],< 200 nM,< 500 nM
COc1cc(C(=O)NC[C@](O)(c2cc3c(c(-c4ccc(F)cc4)n2)OC[C@]3(C)C(=O)NO)C(F)(F)F)cc2cccnc12 [Example 53],< 200 nM,> 500 nM
C[C@]1(C(N)=O)COc2c1cc([C@](O)(CNC(=O)c1cc(OC3CC3)c3ncccc3c1)C(F)(F)F)nc2-c1ccc(F)c(Cl)c1 [Example 79],< 200 nM,< 500 nM
Cc1ccc(-c2nc([C@@](O)(CNC(=O)c3ccc4nn(C)cc4c3)C(F)(F)F)cc3c2OC[C@]3(C)C(N)=O)cc1 [Example 641],< 200 nM,> 500 nM
C[C@]1(C(N)=O)COc2c1cc([C@@](O)(CNC(=O)c1cc(OC3CC3)c3ncc(Cl)cc3c1)C(F)(F)F)nc2-c1ccc(F)cc1 [Example 521],< 200 nM,< 500 nM
COc1nc2c(OC(C)C)cc(C(=O)NC[C@](O)(c3cc4c(c(-c5ccc(F)cc5)n3)OC[C@]4(C)C(N)=O)C(F)(F)F)cc2s1 [Example 444],< 200 nM,> 500 nM
C[C@]1(C(N)=O)COc2c1cc([C@@](O)(CNC(=O)c1ccc(OC3CC3)c(N3CCC3)c1)C(F)(F)F)nc2-c1ccc(F)cc1 [Example 136],< 200 nM,> 500 nM
COc1cc(C(=O)NC[C@](O)(c2cc3c(c(-c4ccc(F)cc4)n2)OC[C@]3(C)C(N)=O)C(F)(F)F)cc2cc(C(F)(F)F)cnc12 [Example 557],< 200 nM,< 500 nM
C[C@]1(C(N)=O)COc2c1cc([C@@](O)(CNC(=O)c1ccc(OC3CC3)c(OC3CC3)c1)C(F)(F)F)nc2-c1ccc(F)c(C#N)c1 [Example 95],< 200 nM,> 500 nM
C[C@]1(C(N)=O)COc2c1cc([C@@](O)(CNC(=O)c1ccc(OC3CC3)c(OC3CC3)c1)C(F)(F)F)nc2-c1ccc(F)c(F)c1 [Example 91],< 200 nM,< 500 nM
COc1cc(C(=O)NC[C@](O)(c2cc3c(c(-c4ccc(F)cc4)n2)OC[C@]3(C)C(N)=O)C(F)(F)F)cc2cc(C)c(C)nc12 [Example 533],< 200 nM,< 500 nM
CC(C)(Oc1cc(C(=O)NC[C@](O)(c2cc3c(c(-c4ccc(F)cc4)n2)OC[C@]3(C)C(N)=O)C(F)(F)F)cc2cccnc12)C(N)=O [Example 380],< 200 nM,> 500 nM
COc1cc(C(=O)NC[C@](O)(c2cc3c(c(-c4ccc(F)c(Cl)c4)n2)OC[C@]3(C)C(N)=O)C(F)(F)F)ccc1OC1CC1 [Example 88],< 200 nM,< 500 nM
C[C@]1(C(N)=O)COc2c1cc([C@@](O)(CNC(=O)c1cc(NC(N)=O)c3ncccc3c1)C(F)(F)F)nc2-c1ccc(F)cc1 [Example 408],< 200 nM,> 500 nM
COc1cc(C(=O)NC[C@](O)(c2cc3c(c(-c4ccc(F)cc4)n2)OC[C@]3(C)CNCC2CC2)C(F)(F)F)ccn1 [Example 37],> 200 nM,> 500 nM

Structure (SMILES),EC50 [1],EC50 [2]
C[C@]1(C(N)=O)COc2c1cc([C@](O)(CNC(=O)c1cc(OC3CC3)c3ncccc3c1)C(F)(F)F)nc2-c1ccc(C(F)(F)F)cc1 [Example 82],< 200 nM,> 500 nM
COc1cc(C(=O)NC[C@](O)(c2cc3c(c(-c4ccc(F)cc4)n2)OCC3(F)C(N)=O)C(F)(F)F)cc2cccnc12 (stereo partly shown) [Example 669],< 200 nM,> 500 nM
Cc1ccc2cc(C(=O)NC[C@](O)(c3cc4c(c(-c5ccc(F)cc5)n3)OC[C@]4(C)C(N)=O)C(F)(F)F)cc(NC(=O)C3CC3)c2n1 [Example 626],< 200 nM,> 500 nM
C[C@]1(C(=O)NC2CC(O)C2)COc2c1cc([C@@](O)(CNC(=O)c1cc(OC3CC3)c3ncccc3c1)C(F)(F)F)nc2-c1ccc(F)cc1 (stereo partly shown) [Example 467],< 200 nM,< 500 nM
C[C@]1(C(=O)NC[C@@H](O)CO)COc2c1cc([C@@](O)(CNC(=O)c1cc(OC3CC3)c3ncccc3c1)C(F)(F)F)nc2-c1ccc(F)cc1 [Example 492],< 200 nM,> 500 nM
C[C@]1(C(N)=O)COc2c1cc([C@@](O)(CNC(=O)c1ccc(OC3CC3)c(OC3CC3)c1)C(F)(F)F)nc2-c1ccc(C(F)(F)F)cc1 [Example 93],< 200 nM,> 500 nM
Cc1cnc2c(Nc3cccnn3)cc(C(=O)NC[C@](O)(c3cc4c(c(-c5ccc(F)cc5)n3)OC[C@]4(C)C(N)=O)C(F)(F)F)cc2c1 [Example 560],< 200 nM,< 500 nM
COc1cc(C(=O)NC[C@](O)(c2cc3c(c(-c4ccc(F)cc4)n2)OC[C@]3(C)CC#N)C(F)(F)F)cc2cccnc12 [Example 74],< 200 nM,< 500 nM
Cc1cnc2c(NC(=O)C3CC3)cc(C(=O)NC[C@](O)(c3cc4c(c(-c5ccc(F)cc5)n3)OC[C@]4(C)C(N)=O)C(F)(F)F)cc2c1 [Example 416],< 200 nM,> 500 nM
C[C@]1(C(N)=O)COc2c1cc([C@@](O)(CNC(=O)c1cc(Cl)c3ncccc3c1)C1CC1)nc2-c1ccc(F)cc1 [Example 281],< 200 nM,< 500 nM
COc1cc(C(=O)NC[C@](O)(c2cc3c(c(-c4ccc(F)cc4)n2)OC[C@]3(C)CNC2(C)CC2)C(F)(F)F)cc2cccnc12 [Example 44],< 200 nM,> 500 nM
COc1cc(C(=O)NC[C@](O)(c2cc3c(c(-c4ccc(F)c(Cl)c4)n2)OC[C@]3(C)C(N)=O)C2CC2)cc2cc(C(F)(F)F)cnc12 [Example 536],< 200 nM,< 500 nM
COc1cc(C(=O)NC[C@](O)(c2cc3c(c(-c4ccc(F)cc4)n2)OC[C@]3(C)C(N)=O)C(F)(F)F)cc2c1OCCC2 [Example 508],> 200 nM,< 500 nM
C[C@]1(C(N)=O)COc2c1cc([C@@](O)(CNC(=O)c1ccc3ncc(F)cc3c1)C(F)(F)F)nc2-c1ccc(F)cc1 [Example 527],< 200 nM,> 500 nM
C[C@]1(C(N)=O)COc2c1cc([C@@](O)(CNC(=O)c1ccc3ncccc3c1)C(F)(F)F)nc2-c1ccc(F)cc1 [Example 269],< 200 nM,< 500 nM
CC1(NC(=O)Nc2cc(C(=O)NC[C@](O)(c3cc4c(c(-c5ccc(F)cc5)n3)OC[C@]4(C)C(N)=O)C(F)(F)F)cc3cccnc23)CC1 [Example 411],< 200 nM,< 500 nM
C[C@]1(C(N)=O)COc2c1cc([C@@](O)(CNC(=O)c1ccc(OC3CC3)c(OC3CC3)c1)C(F)(F)F)nc2-c1ccc(C#N)cc1 [Example 94],< 200 nM,< 500 nM
C[C@]1(C(N)=O)COc2c1cc([C@@](O)(CNC(=O)c1cc(OC(F)F)c3nc(N)sc3c1)C1CC1)nc2-c1ccc(F)c(Cl)c1 [Example 540],< 200 nM,< 500 nM
Cc1cnc2c(NC(=O)c3nc(C)co3)cc(C(=O)NC[C@](O)(c3cc4c(c(-c5ccc(F)cc5)n3)OC[C@]4(C)C(N)=O)C(F)(F)F)cc2c1 [Example 623],< 200 nM,> 500 nM
C[C@]1(C(N)=O)COc2c1cc([C@@](O)(CNC(=O)c1cc(O)c3ncccc3c1)C(F)(F)F)nc2-c1ccc(F)cc1 [Example 363],–,< 500 nM
